“And” between values parts separate entries of the source, which are not always exact repeats. Equal entries are not always repeated.
Experiment: Particle size analysis (wet analysis), Malvern Mastersizer 3000
Type: physicochemical
Conditions: starting material before micronisation
Protocol: The pump speed was set to 3000 rpm. […] The dispersed particles were added to the dispersion unit to reach an obscuration of 5-15%. […] Six replicates were performed per measurement.

[1] = listed as unmicronised glycopyrrolate

D10 [1] | D50 [1] | D90 [1] | Compound | D10 | D50 | D90
1.09 μm | 2.90 μm | 10.4 μm | C[N+]1(C)CCC(OC(=O)C(O)(c2ccccc2)C2CCCC2)C1 (stereo not drawn) [Unmicronised glycopyrrolate, glycopyrrolate] | 2.89 μm | 16.0 μm | 49.0 μm
 |  |  | magnesium stearate | 2.8 μm and 2.06 μm | 8.8 μm and 6.57 μm | 27.4 μm and 19.9 μm

From patent publication US11219602B2 (VECTURA LIMITED, priority 2017, dated 2022)
